Activity calls are given as the source filed them. No cut-off for these calls is given here.
How the values were obtained:
[1] = molecular target: Glutamate receptor ionotropic, kainate (Rattus norvegicus) (UniProt P22756+Q01812+P42260+P42264+Q63273); assay: Inhibition of Glutamate, Kainate at 10 µM in the Eurofins-Panlabs radioligand binding assay (Eurofins_assay_232700); details: Compound concentration 10.0 uM
[2] = molecular target: Acetylcholine receptor subunit alpha (Homo sapiens) (UniProt P02708); assay: Inhibition of Nicotinic Acetylcholine D1, Bungarotoxin at 10 µM in the Eurofins-Panlabs radioligand binding assay (Eurofins_assay_258700); details: Compound concentration 10.0 uM
[3] = molecular target: voltage-gated sodium channel, site 2 (Rattus norvegicus, UniProt F1LQQ7+O08562+O88420+O88457+P04774+P04775+P08104+P15389+P15390+Q62968); assay: Inhibition of Sodium Channel, Site 2 at 10 µM in the Eurofins-Panlabs radioligand binding assay (Eurofins_assay_279510); assay type: protein assay; set-up: ligand concentration 5 nM, non-specific ligand with concentration 100 µM Veratridine, incubation time 60 min, incubation temperature 37 °C; details: male, Wistar, rat whole brain (except cerebellum) membranes, probe [3H] Batrachotoxinin, compound concentration 10 uM
[4] = molecular target: Substance-P receptor (Homo sapiens) (UniProt P25103); assay: Inhibition of Tachykinin NK1 at 10 µM in the Eurofins-Panlabs radioligand binding assay (Eurofins_assay_255520); set-up: ligand concentration 0.8 nM; details: Compound concentration 10.0 uM
[5] = molecular target: Prostaglandin G/H synthase 1 (Homo sapiens) (UniProt P23219); assay: Inhibition of Cyclooxygenase COX-1 at compound concentration of 10.0 uM in the Eurofins-Panlabs enzyme assay (Eurofins_assay_116020); details: Compound concentration 10.0 uM
Homo sapiens = organism: Homo sapiens; assay: Inhibition of Phosphodiesterase PDE4 at compound concentration of 10.0 uM in the Eurofins-Panlabs enzyme assay (Eurofins_assay_154000); assay type: protein assay; set-up: substrate with concentration 1.01 uM [3 H]cAMP + cAMP, incubation time 20 min, incubation temperature 25 C; details: Compound concentration 10.0 uM
Rattus norvegicus = organism: Rattus norvegicus; assay: Glutamate, NMDA, Polyamine Eurofins-Panlabs radioligand binding assay; assay type: protein-complex assay; set-up: ligand concentration 2 nM; details: Compound concentration 10.0 uM
[6] = molecular target: T1, Mitotic checkpoint serine/threonine-protein kinase BUB1 (Homo sapiens, UniProt O43683); assay: ePCA binding competition (equilibrium binding assay)
Target sequence in this assay (O43683 whole entry): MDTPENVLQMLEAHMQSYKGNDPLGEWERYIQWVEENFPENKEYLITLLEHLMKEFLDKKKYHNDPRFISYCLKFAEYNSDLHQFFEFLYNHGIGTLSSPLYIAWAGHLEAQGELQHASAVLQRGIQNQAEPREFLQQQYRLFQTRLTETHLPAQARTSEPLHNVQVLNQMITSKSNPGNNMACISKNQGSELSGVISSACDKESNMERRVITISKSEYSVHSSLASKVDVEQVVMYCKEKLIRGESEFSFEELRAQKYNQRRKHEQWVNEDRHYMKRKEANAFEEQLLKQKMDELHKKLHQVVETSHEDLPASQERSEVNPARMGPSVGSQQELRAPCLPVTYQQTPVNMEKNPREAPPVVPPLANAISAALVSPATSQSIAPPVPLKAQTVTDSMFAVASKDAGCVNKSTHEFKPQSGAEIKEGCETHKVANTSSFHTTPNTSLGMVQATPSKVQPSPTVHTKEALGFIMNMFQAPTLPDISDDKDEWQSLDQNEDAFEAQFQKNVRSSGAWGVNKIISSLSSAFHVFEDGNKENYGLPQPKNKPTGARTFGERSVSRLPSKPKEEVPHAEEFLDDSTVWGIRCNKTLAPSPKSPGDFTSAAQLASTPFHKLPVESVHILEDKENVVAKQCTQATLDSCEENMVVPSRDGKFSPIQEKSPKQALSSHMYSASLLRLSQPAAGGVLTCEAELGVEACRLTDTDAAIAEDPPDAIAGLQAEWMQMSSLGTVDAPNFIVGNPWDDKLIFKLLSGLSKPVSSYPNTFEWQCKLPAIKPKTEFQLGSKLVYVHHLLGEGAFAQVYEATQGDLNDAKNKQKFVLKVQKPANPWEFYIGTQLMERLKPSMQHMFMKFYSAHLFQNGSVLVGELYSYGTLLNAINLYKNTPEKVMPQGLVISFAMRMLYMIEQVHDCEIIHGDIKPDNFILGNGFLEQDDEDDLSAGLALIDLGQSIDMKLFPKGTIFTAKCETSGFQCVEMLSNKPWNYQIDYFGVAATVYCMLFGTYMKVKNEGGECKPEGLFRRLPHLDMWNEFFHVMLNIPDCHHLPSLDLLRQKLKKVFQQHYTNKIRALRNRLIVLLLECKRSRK

[7] = molecular target: T1, Mitotic checkpoint serine/threonine-protein kinase BUB1; assay: BUB1 DiscoveRx kinase panel
[8] = molecular target: MAP/microtubule affinity-regulating kinase 3 (Homo sapiens) (UniProt P27448); assay: MARK3 DiscoveRx kinase panel; details: Compound concentration 1.0 uM
Chain of MAP/microtubule affinity-regulating kinase 3 (Homo sapiens) (P27448 whole entry, looked up): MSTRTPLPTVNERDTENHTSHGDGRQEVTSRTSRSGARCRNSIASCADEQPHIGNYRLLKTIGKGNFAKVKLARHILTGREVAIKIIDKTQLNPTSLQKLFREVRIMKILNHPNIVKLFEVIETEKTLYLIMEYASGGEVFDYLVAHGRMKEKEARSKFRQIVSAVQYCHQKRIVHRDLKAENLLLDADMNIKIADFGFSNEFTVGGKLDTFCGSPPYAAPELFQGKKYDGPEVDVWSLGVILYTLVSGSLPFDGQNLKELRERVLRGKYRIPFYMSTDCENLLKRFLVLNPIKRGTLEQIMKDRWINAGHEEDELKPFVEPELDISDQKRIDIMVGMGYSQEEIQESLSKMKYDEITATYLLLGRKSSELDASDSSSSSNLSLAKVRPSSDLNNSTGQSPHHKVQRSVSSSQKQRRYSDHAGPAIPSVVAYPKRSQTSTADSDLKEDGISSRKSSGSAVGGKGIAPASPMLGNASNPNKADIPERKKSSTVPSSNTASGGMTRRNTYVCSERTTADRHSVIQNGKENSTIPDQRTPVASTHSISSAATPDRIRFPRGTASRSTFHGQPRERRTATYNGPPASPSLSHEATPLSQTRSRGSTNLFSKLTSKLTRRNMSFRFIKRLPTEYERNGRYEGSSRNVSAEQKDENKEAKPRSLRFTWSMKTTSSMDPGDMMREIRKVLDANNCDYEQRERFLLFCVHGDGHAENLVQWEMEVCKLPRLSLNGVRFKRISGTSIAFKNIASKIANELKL

[9] = molecular target: Platelet-derived growth factor receptor beta (Homo sapiens) (UniProt P09619); assay: PDGFRB DiscoveRx kinase panel; details: Compound concentration 1.0 uM
[10] = molecular target: SRSF protein kinase 2 (Homo sapiens) (UniProt P78362); assay: SRPK2 DiscoveRx kinase panel; details: Compound concentration 1.0 uM
[11] = molecular target: Casein kinase I isoform gamma-2 (Homo sapiens) (UniProt P78368); assay: CSNK1G2 DiscoveRx kinase panel; details: Compound concentration 1.0 uM
[12] = molecular target: Ephrin type-A receptor 5 (Homo sapiens) (UniProt P54756); assay: EPHA5 DiscoveRx kinase panel; details: Compound concentration 1.0 uM
[13] = molecular target: Serine/threonine-protein kinase D3 (Homo sapiens) (UniProt O94806); assay: PRKD3 DiscoveRx kinase panel; details: Compound concentration 1.0 uM
[14] = molecular target: Serine/threonine-protein kinase RIO1 (Homo sapiens) (UniProt Q9BRS2); assay: RIOK1 DiscoveRx kinase panel; details: Compound concentration 1.0 uM
[15] = molecular target: Mitogen-activated protein kinase 12 (Homo sapiens) (UniProt P53778); assay: p38-gamma DiscoveRx kinase panel; details: Compound concentration 1.0 uM
[16] = molecular target: Death-associated protein kinase 2 (Homo sapiens) (UniProt Q9UIK4); assay: DAPK2 DiscoveRx kinase panel; details: Compound concentration 1.0 uM
[17] = molecular target: Mitogen-activated protein kinase kinase kinase 15 (Homo sapiens) (UniProt Q6ZN16); assay: MAP3K15 DiscoveRx kinase panel; details: Compound concentration 1.0 uM
[18] = molecular target: Serine/threonine-protein kinase NLK (Homo sapiens) (UniProt Q9UBE8); assay: NLK DiscoveRx kinase panel; details: Compound concentration 1.0 uM
[19] = molecular target: Vascular endothelial growth factor receptor 1 (Homo sapiens) (UniProt P17948); assay: FLT1 DiscoveRx kinase panel; details: Compound concentration 1.0 uM
Chain of Vascular endothelial growth factor receptor 1 (Homo sapiens) (P17948 whole entry): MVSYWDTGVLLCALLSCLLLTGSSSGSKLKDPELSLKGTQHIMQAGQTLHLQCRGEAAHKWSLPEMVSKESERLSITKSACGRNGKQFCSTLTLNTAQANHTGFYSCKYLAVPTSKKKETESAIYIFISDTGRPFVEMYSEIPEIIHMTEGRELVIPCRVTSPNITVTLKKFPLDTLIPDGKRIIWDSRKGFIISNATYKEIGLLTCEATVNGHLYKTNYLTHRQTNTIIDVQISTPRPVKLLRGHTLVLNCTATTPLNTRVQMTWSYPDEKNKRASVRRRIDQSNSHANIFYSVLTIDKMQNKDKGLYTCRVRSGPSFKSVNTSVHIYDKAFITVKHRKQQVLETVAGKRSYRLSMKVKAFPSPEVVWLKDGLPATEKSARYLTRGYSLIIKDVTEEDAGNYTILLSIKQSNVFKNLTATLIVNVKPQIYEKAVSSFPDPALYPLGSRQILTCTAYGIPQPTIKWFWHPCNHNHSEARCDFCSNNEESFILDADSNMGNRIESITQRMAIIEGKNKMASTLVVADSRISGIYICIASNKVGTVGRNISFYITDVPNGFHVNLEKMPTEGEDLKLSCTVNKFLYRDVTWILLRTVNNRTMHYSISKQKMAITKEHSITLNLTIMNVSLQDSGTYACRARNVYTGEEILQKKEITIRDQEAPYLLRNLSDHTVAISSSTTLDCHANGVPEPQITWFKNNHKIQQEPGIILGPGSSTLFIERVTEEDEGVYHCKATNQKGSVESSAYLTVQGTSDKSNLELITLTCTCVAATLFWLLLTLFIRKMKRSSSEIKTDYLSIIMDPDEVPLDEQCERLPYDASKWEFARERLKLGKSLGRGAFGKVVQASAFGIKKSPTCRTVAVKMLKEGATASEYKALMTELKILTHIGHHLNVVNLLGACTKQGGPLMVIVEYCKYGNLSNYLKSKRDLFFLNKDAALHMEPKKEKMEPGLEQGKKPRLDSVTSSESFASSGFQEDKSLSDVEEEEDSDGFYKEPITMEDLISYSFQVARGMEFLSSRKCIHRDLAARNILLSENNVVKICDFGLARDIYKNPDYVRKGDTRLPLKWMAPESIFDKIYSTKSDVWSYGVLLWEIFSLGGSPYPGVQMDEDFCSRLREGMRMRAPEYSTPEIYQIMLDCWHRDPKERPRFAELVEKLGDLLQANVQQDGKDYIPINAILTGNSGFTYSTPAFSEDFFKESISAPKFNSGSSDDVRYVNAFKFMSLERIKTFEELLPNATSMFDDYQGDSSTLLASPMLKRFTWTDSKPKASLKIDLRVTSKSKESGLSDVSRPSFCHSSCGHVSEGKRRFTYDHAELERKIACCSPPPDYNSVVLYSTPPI

[20] = molecular target: Serine/threonine-protein kinase DCLK2 (Homo sapiens) (UniProt Q8N568); assay: DCAMKL2 DiscoveRx kinase panel; details: Compound concentration 1.0 uM
[21] = molecular target: High affinity nerve growth factor receptor (Homo sapiens) (UniProt P04629); assay: TRKA DiscoveRx kinase panel; details: Compound concentration 1.0 uM
[22] = molecular target: Serine/threonine-protein kinase 17A (Homo sapiens) (UniProt Q9UEE5); assay: DRAK1 DiscoveRx kinase panel; details: Compound concentration 1.0 uM
Chain of Serine/threonine-protein kinase 17A (Homo sapiens) (Q9UEE5 whole entry): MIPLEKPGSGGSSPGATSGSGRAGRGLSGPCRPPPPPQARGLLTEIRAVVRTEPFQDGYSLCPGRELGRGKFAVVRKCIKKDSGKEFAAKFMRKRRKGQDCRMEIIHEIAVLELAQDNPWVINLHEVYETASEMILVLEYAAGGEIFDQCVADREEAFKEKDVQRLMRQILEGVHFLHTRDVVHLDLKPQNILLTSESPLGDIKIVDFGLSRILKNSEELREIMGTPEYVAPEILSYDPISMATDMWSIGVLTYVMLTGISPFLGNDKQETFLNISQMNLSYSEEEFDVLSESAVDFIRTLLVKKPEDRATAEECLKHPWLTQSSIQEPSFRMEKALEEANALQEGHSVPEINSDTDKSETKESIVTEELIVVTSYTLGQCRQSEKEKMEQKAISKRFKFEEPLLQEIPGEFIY

[23] = molecular target: Serine/threonine-protein kinase LATS1 (Homo sapiens) (UniProt O95835); assay: LATS1 DiscoveRx kinase panel; details: Compound concentration 1.0 uM
[24] = molecular target: Serine/threonine-protein kinase PRP4 homolog (Homo sapiens) (UniProt Q13523); assay: PRP4 DiscoveRx kinase panel; details: Compound concentration 1.0 uM
[25] = molecular target: Wee1-like protein kinase 2 (Homo sapiens) (UniProt P0C1S8); assay: WEE2 DiscoveRx kinase panel; details: Compound concentration 1.0 uM
[26] = molecular target: Serine/threonine-protein kinase PLK1 (Homo sapiens) (UniProt P53350); assay: PLK1 DiscoveRx kinase panel; details: Compound concentration 1.0 uM
[27] = molecular target: NUAK family SNF1-like kinase 2 (Homo sapiens) (UniProt Q9H093); assay: SNARK DiscoveRx kinase panel; details: Compound concentration 1.0 uM
[28] = molecular target: Cyclin-dependent kinase-like 5 (Homo sapiens) (UniProt O76039); assay: CDKL5 DiscoveRx kinase panel; details: Compound concentration 1.0 uM
[29] = molecular target: Dual specificity protein kinase CLK2 (Homo sapiens) (UniProt P49760); assay: CLK2 DiscoveRx kinase panel; details: Compound concentration 1.0 uM
Chain of Dual specificity protein kinase CLK2 (Homo sapiens) (P49760 whole entry, looked up): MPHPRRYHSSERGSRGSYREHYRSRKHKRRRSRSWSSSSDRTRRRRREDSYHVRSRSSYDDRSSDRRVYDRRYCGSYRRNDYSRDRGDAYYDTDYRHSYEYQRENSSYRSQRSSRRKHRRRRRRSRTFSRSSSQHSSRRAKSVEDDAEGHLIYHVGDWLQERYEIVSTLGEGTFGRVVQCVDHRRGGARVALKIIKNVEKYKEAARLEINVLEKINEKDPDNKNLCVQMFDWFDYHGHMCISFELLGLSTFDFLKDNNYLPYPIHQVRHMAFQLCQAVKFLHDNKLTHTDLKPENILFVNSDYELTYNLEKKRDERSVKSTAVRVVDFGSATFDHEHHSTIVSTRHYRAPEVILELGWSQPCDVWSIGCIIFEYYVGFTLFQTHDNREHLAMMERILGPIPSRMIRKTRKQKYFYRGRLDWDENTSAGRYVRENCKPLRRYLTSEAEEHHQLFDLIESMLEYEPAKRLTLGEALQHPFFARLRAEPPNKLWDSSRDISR

[30] = molecular target: Ephrin type-A receptor 8 (Homo sapiens) (UniProt P29322); assay: EPHA8 DiscoveRx kinase panel; details: Compound concentration 1.0 uM
[31] = molecular target: Beta-adrenergic receptor kinase 1 (Homo sapiens) (UniProt P25098); assay: GRK2 DiscoveRx kinase panel; details: Compound concentration 1.0 uM
[32] = molecular target: Mitogen-activated protein kinase kinase kinase 11 (Homo sapiens) (UniProt Q16584); assay: MLK3 DiscoveRx kinase panel; details: Compound concentration 1.0 uM
[33] = molecular target: Serine/threonine-protein kinase Nek3 (Homo sapiens) (UniProt P51956); assay: NEK3 DiscoveRx kinase panel; details: Compound concentration 1.0 uM
[34] = molecular target: Mitogen-activated protein kinase kinase kinase 14 (Homo sapiens) (UniProt Q99558); assay: NIK DiscoveRx kinase panel; details: Compound concentration 1.0 uM
Chain of Mitogen-activated protein kinase kinase kinase 14 (Homo sapiens) (Q99558 whole entry, looked up): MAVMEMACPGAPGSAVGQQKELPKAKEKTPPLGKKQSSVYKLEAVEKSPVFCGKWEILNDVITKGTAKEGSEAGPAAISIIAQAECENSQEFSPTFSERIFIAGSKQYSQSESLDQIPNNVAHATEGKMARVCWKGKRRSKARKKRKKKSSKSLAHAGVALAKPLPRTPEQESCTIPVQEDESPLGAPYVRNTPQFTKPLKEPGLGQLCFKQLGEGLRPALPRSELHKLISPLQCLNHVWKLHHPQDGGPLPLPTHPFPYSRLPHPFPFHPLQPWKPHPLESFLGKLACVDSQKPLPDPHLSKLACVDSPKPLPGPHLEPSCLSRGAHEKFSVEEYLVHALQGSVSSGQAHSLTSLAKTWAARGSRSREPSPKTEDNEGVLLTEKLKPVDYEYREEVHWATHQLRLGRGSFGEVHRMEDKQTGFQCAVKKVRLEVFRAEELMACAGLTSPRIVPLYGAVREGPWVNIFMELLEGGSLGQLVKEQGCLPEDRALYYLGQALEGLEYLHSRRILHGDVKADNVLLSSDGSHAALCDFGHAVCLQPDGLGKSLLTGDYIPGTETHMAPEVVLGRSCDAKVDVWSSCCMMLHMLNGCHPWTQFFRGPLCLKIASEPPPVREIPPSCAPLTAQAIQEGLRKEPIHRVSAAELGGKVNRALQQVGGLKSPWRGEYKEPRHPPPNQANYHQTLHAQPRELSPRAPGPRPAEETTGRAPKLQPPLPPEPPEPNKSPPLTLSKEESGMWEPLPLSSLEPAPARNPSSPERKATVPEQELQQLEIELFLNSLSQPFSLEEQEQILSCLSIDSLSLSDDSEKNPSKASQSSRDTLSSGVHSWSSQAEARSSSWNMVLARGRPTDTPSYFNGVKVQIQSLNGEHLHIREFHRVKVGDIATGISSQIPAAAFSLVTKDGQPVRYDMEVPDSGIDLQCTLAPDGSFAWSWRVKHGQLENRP

[35] = molecular target: cAMP-dependent protein kinase catalytic subunit PRKX (Homo sapiens) (UniProt P51817); assay: PRKX DiscoveRx kinase panel; details: Compound concentration 1.0 uM
[36] = molecular target: Serine/threonine-protein kinase Sgk2 (Homo sapiens) (UniProt Q9HBY8); assay: SGK2 DiscoveRx kinase panel; details: Compound concentration 1.0 uM
[37] = molecular target: Serine/threonine-protein kinase SIK2 (Homo sapiens) (UniProt Q9H0K1); assay: SIK2 DiscoveRx kinase panel; details: Compound concentration 1.0 uM
[38] = molecular target: Tyrosine-protein kinase SYK (Homo sapiens) (UniProt P43405); assay: SYK DiscoveRx kinase panel; details: Compound concentration 1.0 uM
[39] = molecular target: Tyrosine-protein kinase Tec (Homo sapiens) (UniProt P42680); assay: TEC DiscoveRx kinase panel; details: Compound concentration 1.0 uM
[40] = molecular target: Serine/threonine-protein kinase ULK2 (Homo sapiens) (UniProt Q8IYT8); assay: ULK2 DiscoveRx kinase panel; details: Compound concentration 1.0 uM
[41] = molecular target: Tyrosine-protein kinase Yes (Homo sapiens) (UniProt P07947); assay: YES DiscoveRx kinase panel; details: Compound concentration 1.0 uM
MDA-MB-468 = assay: MDA-MB-468 cell line Proliferation assay; assay type: functional, Homo sapiens; details: time 4 day
[42] = molecular target: Glutamate NMDA receptor (Rattus norvegicus) (UniProt P35439+Q00959+Q00960+Q00961+Q62645+Q8VHN2+Q9R1M7); details: Compound concentration 10.0 uM
[43] = molecular target: Delta-type opioid receptor (Homo sapiens) (UniProt P41143); details: Compound concentration 10.0 uM

SMILES: COc1cnccc1Nc1nc(-c2nn(Cc3c(F)cc(OCCO)cc3F)c3ccccc23)ncc1OC
- inhibition [1]: -1%
- inhibition [2]: 14%
- inhibition at 60 min, 10 µM [3]: 53%
- inhibition [4]: 19%
- inhibition [5]: 54%
- inhibition (Homo sapiens): 52%
- inhibition (Rattus norvegicus): 0%
- IC50 [6]: 1 nM (active)
- Kd [7]: 3.3 nM
- residual activity ([7]; Compound concentration 1.0 uM): 0.05%
- residual activity [8]: 73%
- residual activity [9]: 77%
- residual activity [10]: 77%
- residual activity [11]: 78%
- residual activity [12]: 78%
- residual activity [13]: 79%
- residual activity [14]: 79%
- residual activity [15]: 83%
- residual activity [16]: 85%
- residual activity [17]: 87%
- residual activity [18]: 88%
- residual activity [19]: 89%
- residual activity [20]: 90%
- residual activity [21]: 92%
- residual activity [22]: 95%
- residual activity [23]: 95%
- residual activity [24]: 96%
- residual activity [25]: 97%
- residual activity [26]: 98%
- residual activity [27]: 99%
- residual activity [28]: 100%
- residual activity [29]: 100%
- residual activity [30]: 100%
- residual activity [31]: 100%
- residual activity [32]: 100%
- residual activity [33]: 100%
- residual activity [34]: 100%
- residual activity [35]: 100%
- residual activity [36]: 100%
- residual activity [37]: 100%
- residual activity [38]: 100%
- residual activity [39]: 100%
- residual activity [40]: 100%
- residual activity [41]: 100%
- Cell Proliferation IC50 (MDA-MB-468): 1000 nM
- inhibition [42]: -2%
- inhibition [43]: -6%
